{
  "source": "patent US9757334B2",
  "about": "“Surfactant-stripped micelle compositions with high cargo to surfactant ratio” (The Research Foundation for The State University of New York, priority 2014, dated 2017)",
  "experiment": "Absorbance and peak shift of concentrated solutions",
  "assay_type": "physicochemical",
  "conditions": "1000 OD/mL in 10 μm path length versus 1000 fold dilution",
  "procedure": "Characterization of Nanonap Physical and Optical Properties: Size and zeta potential measurement were carried out using dynamic light scattering with a Nano ZS90 Zetasizer (Malvern Instruments). Transmission electron microscopy was performed using a JEM-2010 electron microscope to determine the morphology of an aqueous dispersion of nanonaps negatively stained with 1% uranyl acetate. Absorbance was measured by with a Lambda 35 UV/VIS spectrophotometer (Perkin Elmer) at room temperature using cuvettes with 1 cm path lengths, except for the high-concentrated spectral shifting analysis which used 10 μm path-length cuvettes.\n1 Pc and 3 Nc dyes were identified that gave rise to nanonaps with peaks at 600, 707, 793 and 863 nm (FIG. 25a, b). The nanonaps generated absorption spanning the NIR spectrum while maintaining reasonably narrow full-width half-maxima (50-100 nm). Since PA imaging can resolve multiple absorption wavelengths, multi-wavelength classes of nanoparticles are desirable. The PA spectral response of nanonaps aligned with their absorption spectra (FIG. 35). The nanoparticles could be concentrated into fully soluble solutions with absorptions of greater than 1000. […] This was assessed by measuring absorption of a concentrated solution (1000 optical densities (OD)/mL) in a 10 μm path length, and then measuring a 1000 fold dilution of the same solution in a 1 cm path length. […]",
  "data": [
    {"smiles": "CC1(C)C(/C=C/C=C/C=C/C=C2\\N(CCCCS(=O)(=O)O)c3ccc4ccccc4c3C2(C)C)=[N+](CCCCS(=O)(=O)[O-])c2ccc3ccccc3c21", "note": "[indocyanine green]", "values": [
      {"measurement": "absorption peak shift upon concentration", "result": "large absorption shifts"}
    ]}
  ]
}
